The term IC50 denotes the concentration that inhibits the measured activity by half.

The values below come from patent US10059694B2, “2-aminopyrimidine compound and pharmaceutical composition and use thereof” (Shanghai Institute of Materia Medica, Chinese Academy of …, priority 2014, dated 2018).

Bounds are passed on as bounds.

One experiment concerns the target T1, EGFR^T790M/L858R (Homo sapiens, UniProt P00533, L858R/T790M).
T1 construct: purchased Millipore
The experiment is described as follows: kinase inhibitory activity test (ELISA), EGFR^T790M/L858R. It counts as biochemical. To be noted: for IC50: ELISA, ATP 5 μM, 1 hour at 37° C. On the procedure:
(§1) The enzyme substrate poly (glutamic acid, tyrosine)4:1 (Sigma) was diluted with potassium-free PBS (10 mM sodium phosphate buffer, 150 mM NaCl, pH 7.2-7.4) to 20 μg/mL, plate coated with 125 μL/well, reacted for 12-16 hours at 37° C. After the liquid in the wells was discarded, the plates were washed three times with 200 μL/well of T-PBS (PBS containing 0.1% Tween-20), and each time for 5 minutes, and then dried for 1-2 hours in an oven at 37° C. 50 μL of ATP solution diluted with reaction buffer (50 mM HEPES pH 7.4, 50 mM MgCl2, 5 mM MnCl2, 0.2 mM Na3VO4, 1 mM DTT) was added into each well and the final concentration was 5 μM. The compounds were diluted with 1% DMSO to suitable concentrations and were added at 10 μL/well. […] The above reaction system was reacted for 1 hour at 37° C. shaking table (100 rpm). Control wells with no enzyme and control wells with DMSO solvent were set in each experiment. After the reaction was completed, the plates were washed three times with T-PBS. The anti-phosphotyrosine primary antibody PY99 (Santa Cruz) was added at 100 μL/well and the antibody was diluted with T-PBS containing BSA 5 mg/mL by 1:1000. The mixture was reacted for 0.5 h at 37° C. shaking table, the plates were washed three times with T-PBS. The secondary antibody which was horseradish peroxidase-labeled goat anti-mouse IgG was added at 100 μL/well (the antibody was diluted with T-PBS containing BSA 5 mg/mL by 1:2000). The mixture was reacted for 0.5 h at 37° C. shaking table, the plates were washed three times with T-PBS. 2 l/mL of OPD coloring solution was added at 100 μL/well (diluted with 0.1 M citric acid-sodium citrate buffer (pH=5.4) containing 0.03% H2O2) and dark reacted for 1 to 10 minutes at 25° C. 2 M H2SO4 was added at 50 μL/well to terminate the reaction. Reading was carried out with an adjustable wavelength microplate enzyme-labeled instrument SPECTRA MAX 190 at 490 nm wavelength.
(§2) The IC50 value was calculated by the four-parameter fitting of the suppression curve.

Experiment [1] deals with human epidermal carcinoma A431 cell line. The experiment is described as follows: SRB proliferation assay, A431 cells. It counts as cell-based. The following applies: A-431, SRB, 72 h, read-out: IC50 A431. As for the experimental part: (§3) Cell lines: human epidermal carcinoma A431 cell line and human non-small cell lung cancer NCI-H1975 cell line was purchased from the American Standard Biology Collection Center (ATCC).
(§4) Methods: sulforhodamine B (SRB) method, which was as follows: certain number of different tumor cells in logarithmic growth phase were inoculated on 96-well culture plates. After cultured for 24 h to cell adherence, different concentrations of the test compounds of the invention were added. Each concentration was provided with three wells, and a corresponding concentration of DMSO solvent control and a cell-free zeroing well were set. After the cells were treated with the medicine for 72 h, the culture medium was discarded and 100 μL of 10% pre-cooled trichloroacetic acid solution was added to fix the cells. After placed for 1 h at 4° C., it was washed for 5 times with distilled water and dried naturally. Then 100 μL SRB (4 mg/mL) (Sigma) solution was added and stained for 15 min at room temperature. The staining solution was discarded and washed for 5 times with 1% glacial acetic acid and dried. Finally, 150 μL of 10 mM Tris solution (pH 10.5) was added and the OD value was measured at 515 nm with adjustable wavelength microplate enzyme-labeled instrument (VERSAmax™, Molecular Device Corporation, Sunnyvale, Calif., USA).

In experiment [2] the test system is human non-small cell lung cancer NCI-H1975 cell line. The experiment is described as follows: SRB proliferation assay, NCI-H1975 cells. It counts as cell-based. The following applies: NCI-H1975, SRB, 72 h, read-out: IC50 NCI-H1975. As for the experimental part:
as §3
as §4, with “USA). […] Based on the inhibitory effect of the 2-aminopyrimidine compounds on the growth of these cells, the half maximal inhibitory concentration (IC50) values were calculated, as shown in Table 2.” for “USA).”
For orientation: In SRB staining, fixed cells bind dye roughly in proportion to their protein.

The target in another experiment is T2, EGFR^wt (Homo sapiens, UniProt P00533).
T2 construct: purchased Millipore
The experiment is described as follows: kinase inhibitory activity test (ELISA), EGFR^WT. It counts as biochemical. The following applies: ATP 5 μM, 1 hour at 37° C. On the procedure:
as §1, §2
(In general: An ELISA detects its analyte on a solid surface through an enzyme-linked reagent.)

Another experiment deals with T3, IGF-1R (Homo sapiens, UniProt P08069).
T3 construct: purchased Millipore
In words: kinase inhibitory activity test (ELISA), IGF-1R. To be noted: ATP 5 μM, 1 hour at 37° C. It counts as biochemical. As for the experimental part:
The enzyme substrate poly (glutamic acid, tyrosine)4:1 (Sigma) was diluted with potassium-free PBS (10 mM sodium phosphate buffer, 150 mM NaCl, pH 7.2-7.4) to 20 μg/mL, plate coated with 125 μL/well, reacted for 12-16 hours at 37° C. After the liquid in the wells was discarded, the plates were washed three times with 200 μL/well of T-PBS (PBS containing 0.1% Tween-20), and each time for 5 minutes, and then dried for 1-2 hours in an oven at 37° C. 50 μL of ATP solution diluted with reaction buffer (50 mM HEPES pH 7.4, 50 mM MgCl2, 5 mM MnCl2, 0.2 mM Na3VO4, 1 mM DTT) was added into each well and the final concentration was 5 μM. The compounds were diluted with 1% DMSO to suitable concentrations and were added at 10 μL/well. Then different types of tyrosine kinase proteins (including EGFR^wt, EGFR^T790M/L858R and IGF-1R, purchased from Millipore) diluted with 40 μL of reaction buffer were added. The above reaction system was reacted for 1 hour at 37° C. shaking table (100 rpm). Control wells with no enzyme and control wells with DMSO solvent were set in each experiment. After the reaction was completed, the plates were washed three times with T-PBS. The anti-phosphotyrosine primary antibody PY99 (Santa Cruz) was added at 100 μL/well and the antibody was diluted with T-PBS containing BSA 5 mg/mL by 1:1000. The mixture was reacted for 0.5 h at 37° C. shaking table, the plates were washed three times with T-PBS. The secondary antibody which was horseradish peroxidase-labeled goat anti-mouse IgG was added at 100 μL/well (the antibody was diluted with T-PBS containing BSA 5 mg/mL by 1:2000). The mixture was reacted for 0.5 h at 37° C. shaking table, the plates were washed three times with T-PBS. 2 l/mL of OPD coloring solution was added at 100 μL/well (diluted with 0.1 M citric acid-sodium citrate buffer (pH=5.4) containing 0.03% H2O2) and dark reacted for 1 to 10 minutes at 25° C. 2 M H2SO4 was added at 50 μL/well to terminate the reaction. Reading was carried out with an adjustable wavelength microplate enzyme-labeled instrument SPECTRA MAX 190 at 490 nm wavelength.
as §2

T3 sequence (P08069 31-1367): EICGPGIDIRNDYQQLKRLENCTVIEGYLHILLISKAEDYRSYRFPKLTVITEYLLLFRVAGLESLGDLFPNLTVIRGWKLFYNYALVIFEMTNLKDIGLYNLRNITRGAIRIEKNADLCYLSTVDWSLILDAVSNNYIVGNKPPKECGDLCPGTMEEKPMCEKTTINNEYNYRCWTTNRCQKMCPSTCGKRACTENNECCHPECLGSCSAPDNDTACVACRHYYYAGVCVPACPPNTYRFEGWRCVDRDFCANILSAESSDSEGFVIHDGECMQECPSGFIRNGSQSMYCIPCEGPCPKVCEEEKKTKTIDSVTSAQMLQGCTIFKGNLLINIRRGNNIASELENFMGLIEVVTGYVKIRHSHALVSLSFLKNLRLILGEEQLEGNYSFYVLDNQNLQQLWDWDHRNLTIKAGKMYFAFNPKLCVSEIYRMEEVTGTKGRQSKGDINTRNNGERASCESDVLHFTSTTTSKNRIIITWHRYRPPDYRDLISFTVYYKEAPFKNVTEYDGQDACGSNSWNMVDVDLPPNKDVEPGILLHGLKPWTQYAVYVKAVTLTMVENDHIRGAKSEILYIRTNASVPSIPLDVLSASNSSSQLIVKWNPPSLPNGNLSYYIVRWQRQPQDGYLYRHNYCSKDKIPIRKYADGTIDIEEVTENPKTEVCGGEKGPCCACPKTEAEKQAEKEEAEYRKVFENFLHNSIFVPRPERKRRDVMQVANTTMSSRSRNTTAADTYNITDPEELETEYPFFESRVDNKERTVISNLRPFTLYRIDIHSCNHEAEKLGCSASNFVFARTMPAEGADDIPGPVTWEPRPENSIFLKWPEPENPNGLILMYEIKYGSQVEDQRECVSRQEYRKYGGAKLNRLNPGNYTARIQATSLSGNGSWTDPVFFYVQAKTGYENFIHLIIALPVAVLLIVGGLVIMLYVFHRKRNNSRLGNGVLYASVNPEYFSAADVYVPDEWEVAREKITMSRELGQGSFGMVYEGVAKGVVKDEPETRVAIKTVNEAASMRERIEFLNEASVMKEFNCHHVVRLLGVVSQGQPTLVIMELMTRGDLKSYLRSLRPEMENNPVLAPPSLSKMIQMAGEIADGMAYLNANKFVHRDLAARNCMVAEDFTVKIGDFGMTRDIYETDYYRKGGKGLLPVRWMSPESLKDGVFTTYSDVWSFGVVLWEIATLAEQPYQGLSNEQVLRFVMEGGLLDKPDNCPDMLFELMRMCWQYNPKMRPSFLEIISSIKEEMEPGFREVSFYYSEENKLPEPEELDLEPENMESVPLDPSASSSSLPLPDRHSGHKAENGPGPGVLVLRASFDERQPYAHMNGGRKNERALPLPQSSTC
T1 sequence (P00533 25-1210 T790M/L858R): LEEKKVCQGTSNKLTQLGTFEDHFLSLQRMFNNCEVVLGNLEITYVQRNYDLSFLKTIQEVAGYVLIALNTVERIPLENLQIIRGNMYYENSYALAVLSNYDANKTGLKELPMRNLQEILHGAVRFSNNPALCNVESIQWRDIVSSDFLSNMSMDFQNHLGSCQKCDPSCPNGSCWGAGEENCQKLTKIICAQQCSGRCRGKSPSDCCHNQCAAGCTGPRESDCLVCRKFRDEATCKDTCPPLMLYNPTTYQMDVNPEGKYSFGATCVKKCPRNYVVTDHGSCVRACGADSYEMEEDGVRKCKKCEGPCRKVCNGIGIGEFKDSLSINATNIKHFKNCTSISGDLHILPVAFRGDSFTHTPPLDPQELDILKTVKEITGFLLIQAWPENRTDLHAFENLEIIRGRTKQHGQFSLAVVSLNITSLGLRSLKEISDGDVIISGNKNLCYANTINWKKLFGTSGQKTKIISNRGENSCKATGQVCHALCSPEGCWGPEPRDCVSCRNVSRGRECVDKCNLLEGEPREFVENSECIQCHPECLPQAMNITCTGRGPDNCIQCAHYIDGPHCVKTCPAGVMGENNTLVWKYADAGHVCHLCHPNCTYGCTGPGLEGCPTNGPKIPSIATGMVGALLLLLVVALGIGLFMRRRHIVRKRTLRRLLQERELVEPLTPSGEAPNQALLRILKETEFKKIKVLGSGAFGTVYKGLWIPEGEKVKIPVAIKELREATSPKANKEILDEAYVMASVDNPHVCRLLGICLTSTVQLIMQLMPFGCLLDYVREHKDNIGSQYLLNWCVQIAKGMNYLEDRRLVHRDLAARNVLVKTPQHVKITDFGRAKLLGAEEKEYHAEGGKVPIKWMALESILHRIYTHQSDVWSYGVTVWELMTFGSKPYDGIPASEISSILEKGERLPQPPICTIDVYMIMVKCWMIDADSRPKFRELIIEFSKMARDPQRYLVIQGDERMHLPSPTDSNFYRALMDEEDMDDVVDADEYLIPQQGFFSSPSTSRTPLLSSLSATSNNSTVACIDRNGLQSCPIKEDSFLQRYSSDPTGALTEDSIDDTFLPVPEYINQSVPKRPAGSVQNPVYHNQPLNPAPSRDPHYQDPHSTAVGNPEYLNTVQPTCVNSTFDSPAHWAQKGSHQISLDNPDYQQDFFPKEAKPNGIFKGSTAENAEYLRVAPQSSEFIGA
T2 sequence (P00533 25-1210): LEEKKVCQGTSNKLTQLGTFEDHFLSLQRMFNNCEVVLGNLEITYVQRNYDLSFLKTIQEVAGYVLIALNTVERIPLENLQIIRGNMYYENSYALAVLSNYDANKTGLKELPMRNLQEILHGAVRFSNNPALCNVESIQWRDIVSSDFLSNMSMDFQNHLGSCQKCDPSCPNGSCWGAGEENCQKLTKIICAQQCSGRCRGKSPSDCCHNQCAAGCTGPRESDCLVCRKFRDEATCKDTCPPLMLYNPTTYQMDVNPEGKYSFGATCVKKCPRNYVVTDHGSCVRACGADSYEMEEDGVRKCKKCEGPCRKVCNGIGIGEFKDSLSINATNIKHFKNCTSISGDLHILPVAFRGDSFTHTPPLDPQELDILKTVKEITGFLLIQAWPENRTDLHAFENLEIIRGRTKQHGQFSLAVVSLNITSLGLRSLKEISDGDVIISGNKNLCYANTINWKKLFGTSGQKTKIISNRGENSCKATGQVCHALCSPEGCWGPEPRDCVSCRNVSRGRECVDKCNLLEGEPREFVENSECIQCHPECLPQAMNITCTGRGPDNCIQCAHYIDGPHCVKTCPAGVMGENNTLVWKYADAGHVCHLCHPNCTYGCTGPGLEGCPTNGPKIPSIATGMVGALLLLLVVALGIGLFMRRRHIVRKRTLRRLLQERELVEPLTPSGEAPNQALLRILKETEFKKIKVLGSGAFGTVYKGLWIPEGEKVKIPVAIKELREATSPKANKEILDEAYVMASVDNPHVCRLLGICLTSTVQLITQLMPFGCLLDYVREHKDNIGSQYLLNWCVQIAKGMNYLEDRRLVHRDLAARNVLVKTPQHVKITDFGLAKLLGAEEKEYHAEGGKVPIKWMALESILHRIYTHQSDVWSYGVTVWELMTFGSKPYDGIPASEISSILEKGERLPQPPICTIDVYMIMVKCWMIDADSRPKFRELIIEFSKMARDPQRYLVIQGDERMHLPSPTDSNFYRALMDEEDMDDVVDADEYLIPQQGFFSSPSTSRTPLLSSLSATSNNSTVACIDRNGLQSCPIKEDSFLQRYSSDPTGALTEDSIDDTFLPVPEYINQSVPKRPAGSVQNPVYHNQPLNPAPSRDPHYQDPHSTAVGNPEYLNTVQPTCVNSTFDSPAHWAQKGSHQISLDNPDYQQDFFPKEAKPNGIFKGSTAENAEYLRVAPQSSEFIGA

For `C=CC(=O)Nc1cc(CN2CCOCC2)cc(Nc2ncc(Cl)c(Nc3ccc4ccccc4c3)n2)c1` [CCB120106], the IC50 was 4.1 nM against EGFR^T790M/L858R; 2000 nM in experiment [1]; 311 nM in experiment [2]; > 1000 nM against EGFR^wt; 138 nM at IGF-1R.

As to `COc1ccc(NC(=O)/C=C/CN(C)C)cc1Nc1ncc(C(C)C)c(Nc2ccc3ccccc3c2)n1` [CCB145283, (E)-N-((3-((5-isopropyl-4-((naphthalen-2-yl)amino))pyrimidin-2-yl)amino)-4-methoxyphenyl)-4-(dimethylamino)-2-butenamide], the IC50 came to 151 nM on EGFR^T790M/L858R; 1040 nM in experiment [1]; 860 nM in experiment [2]; 2290 nM on EGFR^wt; 85.2 nM against IGF-1R.

Consider `C=CC(=O)Nc1cc(Nc2ncc(Cl)c(Nc3ccc4ccccc4c3)n2)c(OC)cc1N1CCC(N(C)C)C1` (centres unmarked) [CCB120137, N-((5-((5-chloro-4-((naphthalen-2-yl)amino))pyrimidin-2-yl)amino)-2-(3-dimethylaminopyrrolidin-1-yl)-4-methoxyphenyl)acrylamide], for which the IC50 at EGFR^T790M/L858R amounted to 0.3 nM; in experiment [1] it was 425 nM; in experiment [2], 167 nM; against EGFR^wt it was 16.8 nM; against IGF-1R, 56.4 nM. Also, at EGFR^T790M/L858R (summary of Table 1), the “kinase inhibitory activity (in words)” value is reported as “potent”.

As to `COc1ccc(NC(=O)/C=C/CN(C)C)cc1Nc1ncc(Cl)c(Nc2ccc3[nH]ccc3c2)n1` [CCB145231, (E)-N-((3-((5-chloro-4-((indol-5-yl)amino))pyrimidin-2-yl)amino)-4-methoxyphenyl)-4-(dimethylamino)-2-butenamide], the 50% inhibitory concentration (IC50) against EGFR^T790M/L858R came to 30.8 nM; in experiment [1], 615 nM; in experiment [2] it was 289 nM; on EGFR^wt, 295 nM; against IGF-1R it was 38 nM.

Take `COc1cc(F)c(NC(=O)/C=C/CN(C)C)cc1Nc1ncc(Br)c(Nc2ccc3ccccc3c2)n1` [CCB145381, (E)-N-((5-((5-bromo-4-((naphthalen-2-yl)amino))pyrimidin-2-yl)amino)-2-fluoro-4-methoxyphenyl)-4-(dimethylamino)-2-butenamide]: the IC50 against EGFR^T790M/L858R was 7.5 nM; in experiment [1], 1790 nM; in experiment [2], 508 nM; against EGFR^wt, 3540 nM; on IGF-1R, 102 nM.

Regarding `CN(C)C/C=C/C(=O)Nc1cccc(Nc2ncc(Cl)c(Nc3ccc4ccccc4c3)n2)c1` [CCB145333, (E)-N-((3-((5-chloro-4-((naphthalen-2-yl)amino))pyrimidin-2-yl)amino)phenyl)-4-(dimethylamino)-2-butenamide], the IC50 against EGFR^T790M/L858R came to 24.2 nM; in experiment [1], 6220 nM; in experiment [2] it was 632 nM; at EGFR^wt, 4750 nM; against IGF-1R it was 170 nM.

In the case of `COc1cc(F)c(NC(=O)/C=C/CN(C)C)cc1Nc1ncc(Cl)c(Nc2ccc3ccccc3c2)n1` [CCB145380, (E)-N-((5-((5-chloro-4-((naphthalen-2-yl)amino))pyrimidin-2-yl)amino)-2-fluoro-4-methoxyphenyl)-4-(dimethylamino)-2-butenamide], the half-maximal inhibitory concentration (IC50) against EGFR^T790M/L858R came out at 6.7 nM; in experiment [1], 1670 nM; in experiment [2], 429 nM; against EGFR^wt, 1060 nM; against IGF-1R, 195 nM.

For the molecule `C=CC(=O)Nc1cc(Nc2ncc(Cl)c(Nc3ccc4ccccc4c3)n2)c(OC)cc1N1CCN(C(C)=O)CC1` [CCB120111, N-((5-((5-chloro-4-((naphthalen-2-yl)amino))pyrimidin-2-yl)amino)-2-(4-acetylpiperazine)-4-methoxyphenyl)acrylamide], the concentration for half-maximal inhibition (IC50) against EGFR^T790M/L858R was 21.5 nM; in experiment [1], 1100 nM; in experiment [2], 51 nM; against EGFR^wt, > 100 nM; against IGF-1R it was 19.8 nM.
